The text below walks through data of patent publication US20240294522A1 (Lead Discovery Center GmbH, priority 2021, published 2024).

Assay [1] addresses T1, GRK5 (Homo sapiens, UniProt P34947).
T1 construct: purchased Thermo Scientific
Put plainly: Lance Kinase Activity Assay, GRK5. The conditions noted are these: biochemical Lance kinase activity assay; class symbols A-F; read-out: GRK5 LANCE Assay (IC-50). An outline of the steps: (§1)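 IC50s from sigmoidal dose-response over 0.0025-10 μM compound, with phosphorylated ULight substrate detected by Eu anti-phospho antibody FRET after EDTA quench.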
(Time-resolved FRET reads energy transfer from a long-lived donor to a nearby acceptor.)

The target in assay [2] is T2, GRK2 (Homo sapiens, UniProt P25098).
T2 construct: purchased Thermo Scientific
T2 sequence (P25098 1-689): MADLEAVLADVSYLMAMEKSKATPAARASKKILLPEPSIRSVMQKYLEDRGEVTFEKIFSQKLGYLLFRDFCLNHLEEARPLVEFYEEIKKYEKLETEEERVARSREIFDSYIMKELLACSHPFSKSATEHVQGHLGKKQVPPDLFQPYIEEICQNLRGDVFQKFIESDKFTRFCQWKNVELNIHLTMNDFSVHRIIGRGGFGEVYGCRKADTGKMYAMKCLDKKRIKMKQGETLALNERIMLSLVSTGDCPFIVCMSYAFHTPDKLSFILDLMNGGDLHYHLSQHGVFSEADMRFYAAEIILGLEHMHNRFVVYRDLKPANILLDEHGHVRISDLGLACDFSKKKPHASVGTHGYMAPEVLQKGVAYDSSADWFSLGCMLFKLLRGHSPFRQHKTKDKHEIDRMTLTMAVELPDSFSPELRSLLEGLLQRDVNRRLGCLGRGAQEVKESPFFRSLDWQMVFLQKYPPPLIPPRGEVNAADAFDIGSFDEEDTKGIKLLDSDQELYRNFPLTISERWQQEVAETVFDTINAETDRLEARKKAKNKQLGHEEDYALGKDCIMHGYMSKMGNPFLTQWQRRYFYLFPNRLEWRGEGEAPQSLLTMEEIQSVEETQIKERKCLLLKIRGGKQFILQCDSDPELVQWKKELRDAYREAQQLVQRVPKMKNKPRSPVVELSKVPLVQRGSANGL
Put plainly: Lance Kinase Activity Assay, GRK2. The conditions noted are these: biochemical Lance kinase activity assay; class symbols A-F; read-out: GRK2 LANCE Assay (IC-50). An outline of the steps:
as §1

T1 sequence (P34947 whole entry): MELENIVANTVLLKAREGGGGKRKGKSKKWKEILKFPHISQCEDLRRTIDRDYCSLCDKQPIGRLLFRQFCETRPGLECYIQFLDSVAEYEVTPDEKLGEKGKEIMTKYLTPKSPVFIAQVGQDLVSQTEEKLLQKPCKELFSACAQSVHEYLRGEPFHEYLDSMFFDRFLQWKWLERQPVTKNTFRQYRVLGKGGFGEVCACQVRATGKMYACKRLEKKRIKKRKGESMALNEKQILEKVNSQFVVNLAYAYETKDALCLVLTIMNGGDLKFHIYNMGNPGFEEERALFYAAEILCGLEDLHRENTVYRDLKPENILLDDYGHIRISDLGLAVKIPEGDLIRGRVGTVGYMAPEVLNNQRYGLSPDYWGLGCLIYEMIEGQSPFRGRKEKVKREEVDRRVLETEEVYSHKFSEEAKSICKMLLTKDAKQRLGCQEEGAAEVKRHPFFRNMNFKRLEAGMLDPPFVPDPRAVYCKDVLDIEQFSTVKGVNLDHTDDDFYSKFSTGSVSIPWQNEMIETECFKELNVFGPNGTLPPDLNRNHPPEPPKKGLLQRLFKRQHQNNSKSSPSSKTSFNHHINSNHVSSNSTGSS

As to `COc1ccc([C@@H](C)NC(=O)/C=C/c2c[nH]c3ncc(-c4cnn(CCN5CCOCC5)c4)cc23)cc1OC` [Example 210, (R,E)-N-(1-(3,4-dimethoxyphenyl)ethyl)-3-(5-(1-(2-morpholinoethyl)-1H-pyrazol-4-yl)-1H-pyrrolo[2,3-b]pyridin-3-yl)acrylamide], the IC50 in assay [1] is no more than 50 nM; in assay [2], 1000 to 10000 nM.
In the same order, the values of `COc1ccc([C@@H](C)NC(=O)/C(C#N)=C/c2c[nH]c3ncc(-c4cccc5cnn(C)c45)cc23)cc1OC` [Example 150] are 500 to 1000 nM and greater than 10000 nM.
For `COc1ccc([C@@H](C)NC(=O)/C(C#N)=C/c2c[nH]c3ncc(-c4ccc(F)cc4OC)cc23)cc1OC` [Example 123] the same measures were 100 to 500 nM and greater than 10000 nM.
On to `C[C@@H](NC(=O)/C(C#N)=C/c1c[nH]c2ncccc12)c1ccccc1` [Example 64, (R,E)-2-cyano-N-(1-phenylethyl)-3-(1H-pyrrolo[2,3-b]pyridin-3-yl)acrylamide], for which the IC50 in assay [1] is 50 to 100 nM; in assay [2], 100 to 500 nM.
In the same order, the values of `COc1ccc([C@@H](C)NC(=O)/C(C#N)=C/c2c[nH]c3ncc(-c4cccc(CN5CCN(C(C)=O)CC5)c4)cc23)cc1OC` [Example 141, (R,E)-3-(5-(3-((4-acetylpiperazin-1-yl)methyl)phenyl)-1H-pyrrolo[2,3-b]pyridin-3-yl)-2-cyano-N-(1-(3,4-dimethoxyphenyl)ethyl)acrylamide] are no more than 50 nM and 1000 to 10000 nM.
In the same order, the values of `COc1ccc([C@@H](C)NC(=O)/C(C#N)=C/c2c[nH]c3ncc(-c4cnn(C5COC5)c4)cc23)cc1OC` [Example 155] are no more than 50 nM and 1000 to 10000 nM.
On to `COc1ccc([C@@H](C)NC(=O)/C=C/c2c[nH]c3nccc(-c4cnn5ccccc45)c23)cc1OC` [Example 242, (R,E)-N-(1-(3,4-dimethoxyphenyl)ethyl)-3-(4-(pyrazolo[1,5-a]pyridin-3-yl)-1H-pyrrolo[2,3-b]pyridin-3-yl)acrylamide], for which the IC50 in assay [1] was 100 to 500 nM; in assay [2] it was greater than 10000 nM.
For `COc1ccc([C@@H](C)NC(=O)/C(C#N)=C/c2c[nH]c3ncc(-c4ccc(OCCCN(C)C)cc4)cc23)cc1OC` [Example 138] the same measures were no more than 50 nM and 500 to 1000 nM.
Consider `COc1ccc([C@@H](C)NC(=O)/C(C#N)=C/c2c[nH]c3ncc(-c4cn(C)nc4C)cc23)cc1OC` [Example 168, (R,E)-2-cyano-N-(1-(3,4-dimethoxyphenyl)ethyl)-3-(5-(1,3-dimethyl-1H-pyrazol-4-yl)-1H-pyrrolo[2,3-b]pyridin-3-yl)acrylamide], for which the figures for the IC50 in assay [1] and in assay [2] were no more than 50 nM and 1000 to 10000 nM, respectively.
In the same order, the values of `C[C@@H](NC(=O)/C(C#N)=C/c1c[nH]c2ncc(-c3cnn(C)c3)cc12)c1ccc(F)cc1` [Example 93, (R,E)-2-cyano-N-(1-(4-fluorophenyl)ethyl)-3-(5-(1-methyl-1H-pyrazol-4-yl)-1H-pyrrolo[2,3-b]pyridin-3-yl)acrylamide] are no more than 50 nM and 100 to 500 nM.
For `COc1ccc([C@@H](C)NC(=O)/C=C/c2c[nH]c3ncc(-c4cnn(C)c4C#N)cc23)cc1OC` [Example 211, (R,E)-3-(5-(5-cyano-1-methyl-1H-pyrazol-4-yl)-1H-pyrrolo[2,3-b]pyridin-3-yl)-N-(1-(3,4-dimethoxyphenyl)ethyl)acrylamide], the IC50 was no more than 50 nM in assay [1] and 500 to 1000 nM in assay [2].
Turning to `COc1ccc([C@@H](C)NC(=O)/C=C/c2c[nH]c3ncc(-c4ccccc4CN4CCOCC4)cc23)cc1OC` [Example 206, (R,E)-N-(1-(3,4-dimethoxyphenyl)ethyl)-3-(5-(2-(morpholinomethyl)phenyl)-1H-pyrrolo[2,3-b]pyridin-3-yl)acrylamide], the results for the IC50 in assay [1] and in assay [2] were 1000 to 10000 nM and greater than 10000 nM, respectively.
`N#C/C(=C\c1c[nH]c2ncccc12)C(=O)NC(CO)c1ccccc1` (stereo not drawn) [Example 32, (E)-2-cyano-N-(2-hydroxy-1-phenylethyl)-3-(1H-pyrrolo[2,3-b]pyridin-3-yl)acrylamide]: the IC50 in assay [1] and in assay [2] was 50 to 100 nM each time.
`C[C@@H](NC(=O)/C(C#N)=C/c1c[nH]c2ncc(-c3cnn(C)c3)cc12)c1cccc(Cl)c1` [Example 96, (R,E)-N-(1-(3-chlorophenyl)ethyl)-2-cyano-3-(5-(1-methyl-1H-pyrazol-4-yl)-1H-pyrrolo[2,3-b]pyridin-3-yl)acrylamide]: the IC50 is no more than 50 nM in assay [1] and 100 to 500 nM in assay [2].
For `COc1ccc([C@@H](C)NC(=O)/C(C#N)=C/c2c[nH]c3ncc(-c4cccc(S(=O)(=O)N(C)C)c4)cc23)cc1OC` [Example 149] the same measures were no more than 50 nM and 1000 to 10000 nM.
For `CS(=O)(=O)c1ccccc1CNC(=O)/C(C#N)=C/c1c[nH]c2ncccc12` [Example 39, (E)-2-cyano-N-(2-(methylsulfonyl)benzyl)-3-(1H-pyrrolo[2,3-b]pyridin-3-yl)acrylamide] the same measures were 100 to 500 nM and 1000 to 10000 nM.
In the same order, the values of `N#C/C(=C\c1c[nH]c2ncccc12)C(=O)NCc1cccc(N2CCOCC2)c1` [Example 46, (E)-2-cyano-N-(3-morpholinobenzyl)-3-(1H-pyrrolo[2,3-b]pyridin-3-yl)acrylamide] are 1000 to 10000 nM and greater than 10000 nM.
For `COc1ccc([C@@H](C)NC(=O)/C(C#N)=C/c2c[nH]c3ncc(N4CCOCC4)cc23)cc1OC` [Example 84, (R,E)-2-cyano-N-(1-(3,4-dimethoxyphenyl)ethyl)-3-(5-morpholino-1H-pyrrolo[2,3-b]pyridin-3-yl)acrylamide], the values for the IC50 in assay [1] and in assay [2] were no more than 50 nM and 1000 to 10000 nM, respectively.
For `COc1ccc([C@@H](C)NC(=O)/C=C/c2c[nH]c3ncc(-c4cccnc4)cc23)cc1OC` [Example 186, (R,E)-N-(1-(3,4-dimethoxyphenyl)ethyl)-3-(5-(pyridin-3-yl)-1H-pyrrolo[2,3-b]pyridin-3-yl)acrylamide] the same measures were no more than 50 nM and 1000 to 10000 nM.
`COc1ccc([C@@H](C)NC(=O)/C(C#N)=C/c2c[nH]c3nccc(-c4ccc(CN5CCN(C)CC5)cc4)c23)cc1OC` [Example 173, (R,E)-2-cyano-N-(1-(3,4-dimethoxyphenyl)ethyl)-3-(4-(4-((4-methylpiperazin-1-yl)methyl)phenyl)-1H-pyrrolo[2,3-b]pyridin-3-yl)acrylamide]: the IC50 is no more than 50 nM in assay [1] and 1000 to 10000 nM in assay [2].
Turning to `COc1ccc([C@@H](C)NC(=O)/C(C#N)=C/c2c[nH]c3ncc(-c4cncnc4)cc23)cc1OC` [Example 120, (R,E)-2-cyano-N-(1-(3,4-dimethoxyphenyl)ethyl)-3-(5-(pyrimidin-5-yl)-1H-pyrrolo[2,3-b]pyridin-3-yl)acrylamide], the IC50 lay within 50 to 100 nM in assay [1] and 1000 to 10000 nM in assay [2].
For `N#C/C(=C\c1c[nH]c2ncccc12)C(=O)NCc1cccc(Cl)c1` [Example 60, (E)-N-(3-chlorobenzyl)-2-cyano-3-(1H-pyrrolo[2,3-b]pyridin-3-yl)acrylamide], the IC50 in assay [1] and in assay [2] was 100 to 500 nM in each case.
For `N#C/C(=C\c1c[nH]c2ncccc12)C(=O)NCc1ccccc1CN1CCCC1=O` [Example 44, (E)-2-cyano-N-(2-((2-oxopyrrolidin-1-yl)methyl)benzyl)-3-(1H-pyrrolo[2,3-b]pyridin-3-yl)acrylamide], the IC50 in assay [1] and in assay [2] was 1000 to 10000 nM throughout.
Take `COc1ccc([C@@H](C)NC(=O)/C(C#N)=C/c2c[nH]c3ncc(-c4ccccc4CN(C)C)cc23)cc1OC` [Example 136]: the values for the IC50 in assay [1] and in assay [2] were 100 to 500 nM and greater than 10000 nM, respectively.
In the same order, the values of `N#C/C(=C\c1c[nH]c2ncccc12)C(=O)NCc1cccc2[nH]ncc12` [Example 45, (E)-N-((1H-indazol-4-yl)methyl)-2-cyano-3-(1H-pyrrolo[2,3-b]pyridin-3-yl)acrylamide] are 500 to 1000 nM and 1000 to 10000 nM.
In the case of `COc1ccc([C@@H](C)NC(=O)/C=C/c2c[nH]c3nccc(-c4cnn(C)c4)c23)cc1OC` [Example 238, (R,E)-N-(1-(3,4-dimethoxyphenyl)ethyl)-3-(4-(1-methyl-1H-pyrazol-4-yl)-1H-pyrrolo[2,3-b]pyridin-3-yl)acrylamide], the IC50 in assay [1] is 100 to 500 nM; in assay [2], greater than 10000 nM.
For `CC[S+]([O-])c1cccc(-c2ccnc3[nH]cc(/C=C/C(=O)N[C@H](C)c4ccc(OC)c(OC)c4)c23)c1` (stereo partly drawn) [Example 239, (E)-N-((R)-1-(3,4-dimethoxyphenyl)ethyl)-3-(4-(3-(ethylsulfinyl)phenyl)-1H-pyrrolo[2,3-b]pyridin-3-yl)acrylamide] the same measures were 500 to 1000 nM and greater than 10000 nM.
